# Patent US12144864B2, “Tubulysins and protein-tubulysin conjugates” (Regeneron Pharmaceuticals, Inc., priority 2018, dated 2024)
# Like-named read-outs stand apart in the source and are kept apart here.
# Columns and labels:
# HCT15 cells = test: cells; format: cell-based, human; settings: HCT15 cells; for HCT-15 + verapamil % Kill / HCT-15 % Kill: maximum % cell killing
# Procedure, shortened: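 Five-day exposure of 1000 HCT15 cells/well to threefold payload dilutions, run both plus and minus verapamil (5 ug/mL) in RPMI with 10% FBS. ATP luminescence (CellTiter-Glo) gives viability; four-parameter logistic fit of 10 points yields IC50, and 100 − % viable at highest dose gives % kill.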
# H69AR cells = test: Cytotoxicity in panel of MDR cell lines, H69AR (72 h and 144 h); format: cell-based, human; settings: for IC50: Homo sapiens
# Procedure, shortened: (§1)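 1000 cells/well, normal growth medium; 1:3 serial payload dilutions plus untreated control; 72 h and 144 h at 37 °C, 5% CO2; CellTiter-Glo 10 min RT; RLU → 4-parameter logistic IC50 (10 points).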
# HCT-15 cells = test: Cytotoxicity in panel of MDR cell lines, HCT-15 (72 h and 144 h); format: cell-based, human; settings: for IC50: Homo sapiens
# Procedure, shortened: as §1
# MES-SA/MX2 cells = test: Cytotoxicity in panel of MDR cell lines, MES-SA/MX2 (72 h and 144 h); format: cell-based, human; settings: for IC50: Homo sapiens
# Procedure, shortened: as §1
# HEK293 cells = test: Cell-based killing assay of payloads (CellTiter-Glo), HEK293 cells; parameters: species or system human; settings: 5-day incubation; for IC50: Homo sapiens, HEK293, 120 h; for HEK293 % Kill: at maximum concentration tested
# Protocol: (§2) To test the ability of the disclosed tubulysin payloads to kill human cell lines, an in vitro cytotoxicity assay was performed. In vitro cytotoxicity of the disclosed payloads, as well as reference compounds, were evaluated using the CellTiter-Glo Assay Kit (Promega, Cat #G7573), in which the quantity of ATP present is used to determine the number of viable cells in culture. For the assay, C4-2, HEK293, or T47D cells were seeded at 4000 cells/well on Nunclon white 96-well plates in complete growth medium (DME high glucose:Ham's F12 at 4:1, 10% FBS, 100 units/ml Penicillin, 100 ug/ml streptomycin, 53 ug/ml glutatmine, 10 ug/ml insulin, 220 ng/ml biotin, 12.5 pg/ml T3, 12.5 ug/ml Adenine, 4 ug/ml transferrin for C42 cells; DME high glucose, 10% FBS, 100 units/ml Penicillin, 100 ug/ml streptomycin, 53 ug/ml glutatmine for HEK293; RPMI, 10% FBS, 100 units/ml Penicillin, 100 ug/ml streptomycin, 53 ug/ml glutatmine, 10 ug/ml insulin, 10 mM HEPEs, 200 nM Sodium Pyruvate for T47D cells) and grown overnight at 37° C. in 5% CO2. For cell viability curves, 1:3 serially diluted payloads were added to the cells at final concentrations ranging from 100 nM to […], including a no treatment control group, and were then incubated for 5 days. After the 5-day incubation, cells were incubated at room temperature with 100 μL of CellTiter-Glo reagents for 10 minutes. Relative luminescence units (RLU) were determined on a Victor plate reader (PerkinElmer). The IC50 values were determined from a four-parameter logistic equation over a 10-point response curve (GraphPad Prism). All IC50 values are expressed in molar (M) concentration. The percent cell killing (% kill) at the maximum concentration tested was estimated from the following formula (100−% viable cells). Averages±standard deviation (SD) are included where replicate experiments were performed.
# HL60/MX2 cells = test: Cytotoxicity in panel of MDR cell lines, HL60/MX2 (72 h and 144 h); format: cell-based, human; settings: for IC50: Homo sapiens
# Procedure, shortened: as §1
# T47D cells = test: Cell-based killing assay of payloads (CellTiter-Glo), T47D cells; parameters: species or system human; settings: 5-day incubation; for IC50: Homo sapiens, T47D, 120 h; for T47D % Kill: at maximum concentration tested
# Protocol: as §2
# C4-2 cells = test: Cell-based killing assay of payloads (CellTiter-Glo), C4-2 cells; parameters: species or system human; settings: 5-day incubation; for IC50: Homo sapiens, C4-2, 120 h, average ± SD where replicates; for C4-2 % Kill: at maximum concentration tested (100 − % viable cells)
# Procedure, shortened: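 Viability readout is CellTiter-Glo luminescence after a 5-day exposure to 10-point, threefold-diluted payloads spanning 100 nM–[…], following overnight attachment of 4000 cells/well. Four-parameter logistic fit gives IC50 in M; % kill taken at highest concentration tested.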
# [1] = with 5 ug/mL Verapamil, read-out: HCT-15 + verapamil IC50
# [2] = Homo sapiens, HCT-15, without Verapamil, read-out: HCT-15 IC50
# [3] = 72 h incubation, read-out: H69AR IC50 72 h
# [4] = 144 h incubation, read-out: H69AR IC50 144 h
# [5] = 72 h incubation, read-out: HCT-15 IC50 72 h
# [6] = 144 h incubation, read-out: HCT-15 IC50 144 h
# [7] = 72 h incubation, read-out: MES-SA/MX2 IC50 72 h
# [8] = 144 h incubation, read-out: MES-SA/MX2 IC50 144 h
# [9] = 72 h incubation, read-out: HL60/MX2 IC50 72 h
# [10] = 144 h incubation, read-out: HL60/MX2 IC50 144 h
SMILES,HCT-15 % Kill (HCT15 cells; without Verapamil) [%],IC50 (HCT15 cells; [2]) [nM],H69AR % Kill 72 h (H69AR cells; 72 h incubation) [%],H69AR % Kill 144 h (H69AR cells; 144 h incubation) [%],IC50 (H69AR cells; [3]) [nM],IC50 (H69AR cells; [4]) [nM],HCT-15 % Kill 72 h (HCT-15 cells; 72 h incubation) [%],HCT-15 % Kill 144 h (HCT-15 cells; 144 h incubation) [%],IC50 (HCT-15 cells; [5]) [nM],IC50 (HCT-15 cells; [6]) [nM],MES-SA/MX2 % Kill 72 h (MES-SA/MX2 cells; 72 h incubation) [%],MES-SA/MX2 % Kill 144 h (MES-SA/MX2 cells; 144 h incubation) [%],IC50 (MES-SA/MX2 cells; [7]) [nM],IC50 (MES-SA/MX2 cells; [8]) [nM],IC50 (HEK293 cells) [nM],HEK293 % Kill (HEK293 cells) [%],HL60/MX2 % Kill 72 h (HL60/MX2 cells; 72 h incubation) [%],HL60/MX2 % Kill 144 h (HL60/MX2 cells; 144 h incubation) [%],IC50 (HL60/MX2 cells; [9]) [nM],IC50 (HL60/MX2 cells; [10]) [nM],further results
"C#CCCCON(C(=O)[C@@H](NC(=O)[C@H]1CCCCN1C)[C@@H](C)CC)[C@H](C[C@@H](OC(C)=O)c1nc(C(=O)N[C@@H](Cc2ccccc2)CC(C)(C)C(=O)O)cs1)C(C)C [Vc, (4S)-4-({2-[(1R,3R)-1-(Acetyloxy)-4-methyl-3-[(2S,3S)-3-methyl-2-{[(2R)-1-methylpiperidin-2-yl]formamido}-N-(pent-4-yn-1-yloxy)pentanamido]pentyl]-1,3-thiazol-4-yl}formamido)-2,2-dimethyl-5-phenylpentanoic acid]",97.6,0.475,96.6,99.4,0.154,0.287,97.6,99.7,0.033,0.0675,99.2,100,0.0895,0.299,0.113,86.9,98.4,99.9,< 0.015,< 0.015,HCT-15 + verapamil % Kill (HCT15 cells; with 5 ug/mL Verapamil): 96.7%; IC50 (HCT15 cells; [1]): 0.146 nM; IC50 (T47D cells): 0.0677 nM; T47D % Kill (T47D cells): 64.9%; IC50 (C4-2 cells): 0.036 nM; C4-2 % Kill (C4-2 cells): 91.7%
"CC[C@H](C)[C@H](NC(=O)[C@H]1CCCCN1C)C(=O)N(CCCCc1cn(C)nn1)[C@H](C[C@@H](OC(C)=O)c1nc(C(=O)N[C@@H](Cc2ccc(N)cc2)CC(C)(C)C(=O)O)cs1)C(C)C [IVh, (S)-4-(2-((1R,3R)-1-acetoxy-4-methyl-3-((2S,3S)-3-methyl-N-(4-(1-methyl-1H-1,2,3-triazol-4-yl)butyl)-2-((R)-1-methylpiperidine-2-carboxamido)pentanamido)pentyl)thiazole-4-carboxamido)-5-(4-aminophenyl)-2,2-dimethylpentanoic acid]",94.6 ± 3.5,2.5,90.2,97.5,2.93,3.3,95.4,99.7,1.52,1.53,98.5,99.9,7.49,8.8,1.76,82.5,96.4,100,1.11,< 0.015,IC50 (T47D cells): 1.86 nM; T47D % Kill (T47D cells): 71.6%; IC50 (C4-2 cells): 0.647 nM; C4-2 % Kill (C4-2 cells): 82 ± 2.8%
"C#CCCCCN(C(=O)[C@@H](NC(=O)[C@H]1CCCCN1C)[C@@H](C)CC)[C@H](C[C@@H](OC(C)=O)c1nc(C(=O)N[C@@H](Cc2ccc(O)cc2)C[C@H](C)C(=O)O)cs1)C(C)C [IVf, (2S,4R)-4-({2-[(1R,3R)-1-(Acetyloxy)-3-[(2S,3S)—N-(hex-5-yn-1-yl)-3-methyl-2-{[(2R)-1-methylpiperidin-2-yl]formamido}pentanamido]-4-methylpentyl]-1,3-thiazol-4-yl}formamido)-5-(4-hydroxyphenyl)-2-methylpentanoic acid]",96.4,0.554,94.6,98.9,1.33,1.55,96.9,99.8,0.419,0.396,99.1,99.9,2.57,3.82,1.64,86.0,97.2,100,0.222,< 0.015,HCT-15 + verapamil % Kill (HCT15 cells; with 5 ug/mL Verapamil): 97.7%; IC50 (HCT15 cells; [1]): 0.686 nM; IC50 (T47D cells): 0.782 nM; T47D % Kill (T47D cells): 67.1%; IC50 (C4-2 cells): 0.229 nM; C4-2 % Kill (C4-2 cells): 93.8%
"CCCCCON(C(=O)[C@@H](NC(=O)[C@H]1CCCCN1C)[C@@H](C)CC)[C@H](C[C@@H](OC(C)=O)c1nc(C(=O)N[C@@H](Cc2ccc(N)cc2)CC(C)(C)C(=O)O)cs1)C(C)C [Vb, (4S)-4-({2-[(1R,3R)-1-(Acetyloxy)-4-methyl-3-[(2S,3S)-3-methyl-2-{[(2R)-1-methylpiperidin-2-yl]formamido}-N-(pentyloxy)pentanamido]pentyl]-1,3-thiazol-4-yl}formamido)-5-(4-aminophenyl)-2,2-dimethylpentanoic acid]",98.8 ± 0.7,0.12,97,99.4,0.272,0.66,97.8,99.7,0.0623,0.127,99.6,99.9,0.213,1.04,0.289,87.8,97.9,100,< 0.015,< 0.015,HCT-15 + verapamil % Kill (HCT15 cells; with 5 ug/mL Verapamil): 98.2 ± 0.5%; IC50 (HCT15 cells; [1]): 0.0365 nM; IC50 (T47D cells): 0.144 nM; T47D % Kill (T47D cells): 66.5%; IC50 (C4-2 cells): 0.07 nM; C4-2 % Kill (C4-2 cells): 92.3 ± 1.7%
"C#CCCCON(C(=O)[C@@H](NC(=O)[C@H]1CCCCN1C)[C@@H](C)CC)[C@H](C[C@@H](OC(C)=O)c1nc(C(=O)N[C@@H](Cc2ccc(N)cc2)C[C@H](C)C(=O)O)cs1)C(C)C [Vh, (2S,4R)-4-({2-[(1R,3R)-1-(Acetyloxy)-4-methyl-3-[(2S,3S)-3-methyl-2-{[(2R)-1-methylpiperidin-2-yl]formamido}-N-(pent-4-yn-1-yloxy)pentanamido]pentyl]-1,3-thiazol-4-yl}formamido)-5-(4-aminophenyl)-2-methylpentanoic acid]",97.7,1.47,93.7,98.4,2.59,4.21,97,99.6,0.871,1.27,98.4,99.8,2.98,8.15,0.718,85.6,97.5,99.9,0.173,< 0.015,HCT-15 + verapamil % Kill (HCT15 cells; with 5 ug/mL Verapamil): 98.1%; IC50 (HCT15 cells; [1]): 0.587 nM; IC50 (T47D cells): 0.458 nM; T47D % Kill (T47D cells): 64.5%; IC50 (C4-2 cells): 0.509 nM; C4-2 % Kill (C4-2 cells): 92%
